# System: corpus cavernosal strips (CCS)
# Experiment: Adenosine-induced relaxation of corpus cavernosal strips (CCS)
# Type: cell-based, mouse
# Protocol: FIG. 16. […] CCS of wild type mice were treated with different concentrations of adenosine with or without DCF (5 μM), a specific inhibitor of adenosine deaminase. Then the extent (mN) of force was monitored. (b) CCS of wild type mice were treated with 100 μM adenosine in the presence of different concentrations of DCF (0-100 uM). Then the extent of force was measured. Data are expressed as mean±SE. *p<0.05, adenosine treated versus the control, **p<0.05, DCF treated versus the adenosine treated.
# FIG. 17. A2BR signaling is required for adenosine-mediated corpus cavernosal strips (CCS) relaxation. (a) CCS of wild type mice were treated with different concentrations of theophiline (1-10 μM) in the presence or absence of adenosine (100 μM). The force changes were measured by force transducer. Data are expressed as mean±SE. *p<0.05, adenosine treated versus the control, **p<0.05, theophiline treated versus the untreated, N=5. (b) CCS from wild type, A2AR, A1R A2BR and A3R-deficient mice were treated with different concentrations of adenosine. The relaxation was measured by force transducer. Data are expressed as mean±SE. *p<0.05, adenosine treated versus the wild type. (c) CCS were isolated from wild type and A2BR-deficient mice and treated with different concentrations of adenosine in the presence or absence of L-NAME (100 μM) or MRS1706 (10 μM). 10 min after treatment, cellular extracts were collected and cAMP levels were measured by using a commercial enzyme immunoassay kit (Amersham Pharmacia). Data are expressed as mean±SE. *p<0.05, adenosine treated versus the control without treatment; **p<0.05, adenosine treated with MRS1706 versus the adenosine treated alone; ***p<0.05, CCS of A2BR-deficient mice treated with adenosine versus the CCS of wild type mice treated with adenosine. N=6-7. (d) CCS of A2BR and ADA double deficient mice lost the hypersensitivity to nerve stimulation compared to ADA deficient mice.
# Function experiments. The tunica albuginea was cut longitudinally, starting at the most proximal point of the corpus cavernosum (CC) toward the penile shaft, and the erectile tissue was partially dissected free from the tunica. One strip of tissue (0.3×0.3×3 mm) was obtained from each corpus cavernosum. The contractility of each isolated corpus cavernosum smooth muscle cells (CCSM) strip was measured using an isometric force transducer (AD Instrument Inc., Georgia, Vt., USA). The strip was mounted in a thermostatically controlled tissue bath containing aerated PSS (mM: 119 NaCl, 4.7 KCl, 24 NaHCO 3, 1.2 KH2PO4, 2.5 CaCl2, 1.2 MgSO4, 0.023 EDTA, and 11 glucose; 5 ml volume, 95% O2 and 5% CO2, 37° C.) and stretched to a resting tension of 0.1 mN. The contractile responses of the strips were analysed by adding 10 μM phenylephrine to the bath, and force changes were recorded in response to drug application and to electrical field stimulation. The particular electrical field stimulation parameters of 0-30V, 30 HZ with a pulse width of approximately 0.5 ms, are commonly used in the mice. […] The changes of cAMP and cGMP contents in CC strips were subsequently measured by commercial enzyme immunoassay kit (Amersham Pharmacia) (see below).
smiles,measurement,setting,value
Nc1ncnc2c1ncn2[C@@H]1O[C@H](CO)[C@@H](O)[C@H]1O [adenosine],CCS relaxation,"A1R, A2AR and A3R deficient mice and wild type mice",dose-dependent increase in relaxation
same,CCS relaxation,CCS from A2BR deficient mice,completely absent
same,CCS relaxation,"CCS from wild type mice, different concentrations",induced CCS relaxation in a dosage dependent manner

# — patent US20100254965A1, “Adenosine Signaling in Diagnosis, Treatment, and Prevention of Priapism and Erectile Dysfunction” (BOARD OF REGENTS ,THE UNIVERSITY OF TEXAS SYSTEM, priority 2006, published 2010)
